In patent publication US8629283B2, “Compounds that modulate negative-sense, single-stranded RNA virus replication and uses thereof” (Icahn School of Medicine at Mount Sinai, priority 2008, dated 2014):
Read-outs that look alike come from different tables or passages of the source. Marks after values point to notes of the source that are not given here.

What was measured:
influenza A/WSN/33 virus [1] = test system: influenza A/WSN/33 virus
influenza A virus (FluA) [2] = test system: influenza A virus (FluA)
in vitro = conditions: human
A549 cells = conditions: for concentrations found non-toxic / not decreasing cell viability, up to: A549 cells, 24 h, MTS assay
influenza A virus (FluA) [3] = assay: in vitro; conditions: human
influenza A virus (FluA) [4] = assay: microbe, parasite or virus in culture; conditions: A549, read-out: IC50 (A549)
influenza A/WSN/33 virus [5] = format: cell-based
[6] = test system: influenza B/Yamagata/88 virus; format: cell-based
[7] = test system: influenza A/Wyoming/03/2003 virus; format: cell-based
[8] = test system: influenza A/Moscow/10/99 virus; format: cell-based
[9] = test system: Newcastle disease virus (NDV/B1); format: cell-based
[10] = test system: vesicular stomatitis virus (VSV); format: cell-based
[11] = molecular target: influenza viral RNA polymerase (Influenza A virus, UniProt P03427+P03430+P15659); format: cell-based
influenza A/WSN/33 virus [12] = assay: microbe, parasite or virus in culture; conditions: A549, 24 h
[13] = read-out: IC50 (compound concentration of 50% inhibition of viral replication)

## N/C(=N\C(=O)c1nc(Cl)c(N)nc1N)NCc1ccc(Cl)c(Cl)c1 [3′,4′-dichlorobenzamil]
Influenza A/WSN/33 virus [1]
  efficiency of growth enhancement relative to 2′,4′-dichlorobenzamil: 10 times less efficient
  influenza virus growth versus untreated control: boost influenza virus replication

## CCN(CC)S(=O)(=O)c1ccc(-c2nnc(SCC(=O)N3CCCC3)o2)cc1 [A3-1]
Influenza A virus (FluA) [2]
  Inhibition of FluA (Table 5): ~29%**
In vitro
  CC50: 316 µM
A549 cells; human
  CC10 (A549), concentration of 10% cytotoxicity: 17.3 µM

## CCN(CC)C(=O)CSc1nnc(-c2ccc3[nH]c(C)c(C)c3c2)o1 [A3-2, 2-(5-(2,3-dimethyl-1H-indol-5-yl)-1,3,4-oxadiazol-2-ylthio)-N,N-diethylacetamide]
Influenza A virus (FluA) [2]
  Inhibition of FluA (Table 5): ~97%**
Influenza A virus (FluA) [3]
  selectivity ratio: > 165
Influenza A virus (FluA) [4]
  IC50: 1.2 µM
In vitro
  CC50: 198 µM
A549 cells; human
  CC10 (A549), concentration of 10% cytotoxicity: 29 µM

## Cc1[nH]c2ccc(-c3nnc(SCC(=O)N4CCc5ccccc54)o3)cc2c1C [A3-3, 2-(5-(2,3-dimethyl-1H-indol-5-yl)-1,3,4-oxadiazol-2-ylthio)-1-(indolin-1-yl)ethanone]
Influenza A virus (FluA) [2]
  Inhibition of FluA (Table 5): ~50%**
Influenza A virus (FluA) [3]
  selectivity ratio: 8
Influenza A virus (FluA) [4]
  IC50: 8.5 µM
In vitro
  CC50: 65 µM
A549 cells; human
  CC10 (A549), concentration of 10% cytotoxicity: 8.5 µM

## Cc1[nH]c2ccc(-c3nnc(SCC(=O)N(C(C)C)C(C)C)o3)cc2c1C [A3-4, 2-(5-(2,3-dimethyl-1H-indol-5-yl)-1,3,4-oxadiazol-2-ylthio)-N,N-diisopropylacetamide]
Influenza A virus (FluA) [2]
  Inhibition of FluA (Table 5): ~87.5%**
Influenza A virus (FluA) [3]
  selectivity ratio: 11
Influenza A virus (FluA) [4]
  IC50: 1.65 µM
In vitro
  CC50: 17.7 µM
A549 cells; human
  CC10 (A549), concentration of 10% cytotoxicity: 10.7 µM

## Cc1[nH]c2ccc(-c3nnc(SCC(=O)N4CCOCC4)o3)cc2c1C [A3-5, 2-(5-(2,3-dimethyl-1H-indol-5-yl)-1,3,4-oxadiazol-2-ylthio)-1-morpholinoethanone]
Influenza A virus (FluA) [2]
  Inhibition of FluA (Table 5): ~97%**
Influenza A virus (FluA) [3]
  selectivity ratio: 514
Influenza A virus (FluA) [4]
  IC50: 0.5 µM
In vitro
  CC50: 257 µM
A549 cells; human
  CC10 (A549), concentration of 10% cytotoxicity: 10.2 µM

## Cc1[nH]c2ccc(-c3nnc(SCC(=O)N4CCCCCC4)o3)cc2c1C [A3-6, 1-(azepan-1-yl)-2-(5-(2,3-dimethyl-1H-indol-5-yl)-1,3,4-oxadiazol-2-ylthio)ethanone]
Influenza A virus (FluA) [2]
  Inhibition of FluA (Table 5): ~87.5%**
Influenza A virus (FluA) [3]
  selectivity ratio: 180
Influenza A virus (FluA) [4]
  IC50: 0.98 µM
In vitro
  CC50: 179 µM
A549 cells; human
  CC10 (A549), concentration of 10% cytotoxicity: 18.2 µM

## O=C(CSc1nnc(-c2cc3ccccc3[nH]2)o1)N1CCCC1 [A3-7]
Influenza A virus (FluA) [2]
  Inhibition of FluA (Table 5): ~29%**
In vitro
  CC50: 134 µM
A549 cells; human
  CC10 (A549), concentration of 10% cytotoxicity: 15.2 µM

## COc1ccc(-c2nnc(SCC(=O)N3CCCC3)o2)cc1 [A3-8]
Influenza A virus (FluA) [2]
  Inhibition of FluA (Table 5): none**
In vitro
  CC50: 250 µM
A549 cells; human
  CC10 (A549), concentration of 10% cytotoxicity: 11.8 µM

## O=C(CSc1nnc(-c2cc3ccccc3o2)o1)N1CCCC1 [A3-9]
Influenza A virus (FluA) [2]
  Inhibition of FluA (Table 5): ~29%**
In vitro
  CC50: 197 µM
A549 cells; human
  CC10 (A549), concentration of 10% cytotoxicity: 10.9 µM

## O=C(CSc1nnc(-c2cccnc2)o1)N1CCCC1 [A3-11]
Influenza A virus (FluA) [2]
  Inhibition of FluA (Table 5): none**
In vitro
  CC50: 249 µM
A549 cells; human
  CC10 (A549), concentration of 10% cytotoxicity: 32.6 µM

## O=C(CSc1nnc(-c2ccncc2)o1)N1CCCC1 [A3-12]
Influenza A virus (FluA) [2]
  Inhibition of FluA (Table 5): ~29%**
In vitro
  CC50: 186 µM
A549 cells; human
  CC10 (A549), concentration of 10% cytotoxicity: 11.5 µM

## CN(Cc1ccccc1)c1nc(-c2ccc([N+](=O)[O-])cc2)cs1 [A35-1, N-methyl-4-(4-nitrophenyl)-N-(phenylmethyl)-2-thiazolamine]
Influenza A virus (FluA) [2]
  Inhibition of FluA (Table 5): ~75%**
Influenza A virus (FluA) [3]
  selectivity ratio: 62
Influenza A virus (FluA) [4]
  IC50: 3.24 µM
In vitro
  CC50: 201 µM
A549 cells; human
  CC10 (A549), concentration of 10% cytotoxicity: 10.8 µM

## CN(c1nc(-c2ccccc2)cs1)C1CCS(=O)(=O)C1 (stereo not drawn) [A35-2]
Influenza A virus (FluA) [2]
  Inhibition of FluA (Table 5): none**
In vitro
  CC50: 148 µM
A549 cells; human
  CC10 (A549), concentration of 10% cytotoxicity: 12.2 µM

## Nc1nc(-c2ccc(Cl)cc2)cs1 [A35-3]
Influenza A virus (FluA) [2]
  Inhibition of FluA (Table 5): none**
In vitro
  CC50: 165 µM
A549 cells; human
  CC10 (A549), concentration of 10% cytotoxicity: 11.4 µM

## CN(c1ccc(O)cc1)c1nc(-c2ccc(Cl)cc2)cs1 [A35-4, 4-[[4-(4-chlorophenyl)-1,3-thiazol-2-yl](methyl)amino]phenol]
Influenza A virus (FluA) [2]
  Inhibition of FluA (Table 5): ~50%**
Influenza A virus (FluA) [3]
  selectivity ratio: 5
Influenza A virus (FluA) [4]
  IC50: 6 µM
In vitro
  CC50: 30 µM
A549 cells; human
  CC10 (A549), concentration of 10% cytotoxicity: 6 µM

## CCCCCCCCCCCCCC(=O)O[C@@H]1[C@@H](C)[C@@]2(O)[C@@H](C=C(CO)C[C@]3(O)C(=O)C(C)=C[C@@H]23)[C@@H]2C(C)(C)[C@]12OC(C)=O [PMA, phorbol 12-myristate 13-acetate]
Influenza A/WSN/33 virus [5]
  HTS result (luciferase signal of influenza mini-genome reporter): not originally recognized in the screen as an enhancer
Influenza A/WSN/33 virus [1]
  increase of viral titer compared to untreated cells: 12 fold

## N#Cc1cc2c(OCC(O)CN3CCN(C(c4ccccc4)c4ccccc4)CC3)cccc2[nH]1 (stereo not drawn) [SDZ-201106]
[6]
  reduction in viral growth/titer compared to untreated control: 72%
Influenza A/WSN/33 virus [5]
  HTS result (luciferase signal of influenza mini-genome reporter): potential influenza virus inhibitors
A549 cells
  concentrations found non-toxic / not decreasing cell viability, up to: up to 12.5 μM
Influenza A/WSN/33 virus [1]
  SI [CC50/IC50] selective index: 7
  reduction in viral titer compared to untreated control: 85%
Influenza A/WSN/33 virus [1]; [13]
  IC50: 4.1 µM

## C[C@H]1O[C@@H](O[C@H]2[C@@H](O)C[C@H](O[C@H]3[C@@H](O)C[C@H](O[C@H]4CC[C@@]5(C)[C@H](CC[C@@H]6[C@@H]5C[C@@H](O)[C@]5(C)[C@@H](C7=CC(=O)OC7)CC[C@]65O)C4)O[C@@H]3C)O[C@@H]2C)C[C@H](O)[C@@H]1O [digoxin]
Influenza A/WSN/33 virus [5]
  HTS result (luciferase signal of influenza mini-genome reporter): potential influenza virus inhibitors

## C=C(C)[C@@]12O[C@@]3(c4ccccc4)O[C@@H]1[C@@H]1[C@@H]4O[C@]4(CO)[C@@H](O)[C@]4(O)C(=O)C(C)=C[C@H]4[C@@]1(O3)[C@H](C)[C@H]2OC(=O)/C=C/C=C/c1ccccc1 [mezerein]
[7]
  maximum viral titer compared to untreated cells: significant increase
[6]
  increase of viral titer compared to untreated cells: 8 fold
[8]
  maximum viral titer compared to untreated cells: significant increase
Influenza A/WSN/33 virus [1]
  increase in viral titers in Vero cells: 15 fold
  increase of viral titer compared to untreated cells: 17 fold

## C[C@@H]1O[C@@H](O[C@H]2C[C@@H](O)[C@]3(CO)[C@H]4[C@H](O)C[C@]5(C)[C@@H](C6=CC(=O)OC6)CC[C@]5(O)[C@@H]4CC[C@]3(O)C2)[C@H](O)[C@H](O)[C@H]1O [ouabain]
Influenza A/WSN/33 virus [5]
  HTS result (luciferase signal of influenza mini-genome reporter): potential influenza virus inhibitors
[9]
  inhibition of NDV replication: significantly inhibited
A549 cells; human
  CC50: 0.047 µM
  concentration that maintained at least an 80% cell viability (CC20): 0.02 µM
[10]
  inhibition of VSV replication: significantly inhibited
Influenza A/WSN/33 virus [1]
  decrease of viral titer compared to untreated control: 99.1%

## NC(=O)c1ncn([C@@H]2O[C@H](CO)[C@@H](O)[C@H]2O)n1 [ribavirin, reference compound]
[11]
  inhibition of viral RNA polymerase activity: 90%

## CC(=O)c1c(O)c(C)c(O)c(Cc2c(O)c3c(c(C(=O)/C=C/c4ccccc4)c2O)OC(C)(C)C=C3)c1O [rottlerin]
[6]
  reduction in viral titer compared to untreated control: 80%
Influenza A/WSN/33 virus [12]; [13]
  IC50: 0.46 µM
Influenza A/WSN/33 virus [12]; read-out: IC50 (half maximal inhibitory concentration)
  IC50: 0.465 µM
Influenza A/WSN/33 virus [5]
  HTS result (luciferase signal of influenza mini-genome reporter): potential influenza virus inhibitors
A549 cells
  concentrations found non-toxic / not decreasing cell viability, up to: up to 1.28 μM
Influenza A/WSN/33 virus [1]
  SI [CC50/IC50] selective index: 39
  reduction in viral titer compared to untreated control: 93%

## C[C@]12CC[C@H]3[C@@H](CC[C@]4(O)C[C@@H](O)CC[C@]34C=O)[C@@]1(O)CC[C@@H]2C1=CC(=O)OC1 [strophanthidin]
Influenza A/WSN/33 virus [5]
  HTS result (luciferase signal of influenza mini-genome reporter): potential influenza virus inhibitors

## lanatoside C
Influenza A/WSN/33 virus [5]
  HTS result (luciferase signal of influenza mini-genome reporter): potential influenza virus inhibitors
[9]
  inhibition of NDV replication: significantly inhibited
A549 cells
  CC50: 0.21 µM
  concentration that maintained at least an 80% cell viability (CC20): 0.078 µM
[10]
  inhibition of VSV replication: significantly inhibited
Influenza A/WSN/33 virus [1]
  decrease of viral titer compared to untreated control: 95.9%
